# Source: US9695155B2, “Herbicidal substituted pyrimidinyloxy benzene compounds” (E. I. DU PONT DE NEMOURS AND COMPANY, priority 2013, dated 2017)
# Tests used:
# [1] = test system: field poppy; test: Test D preemergence; type: in vivo, Papaver rhoeas
# Source text: (§1) Seeds of plant species selected from bluegrass (annual bluegrass, Poa annua), blackgrass (Alopecurus myosuroides), canarygrass (littleseed canarygrass, Phalaris minor), chickweed (common chickweed, Stellaria media), galium (catchweed bedstraw, Galium aparine), bromegrass, downy (downy bromegrass, Bromus tectorum), field poppy (Papaver rhoeas), field violet (Viola arvensis), green foxtail (Setaria viridis), deadnettle (henbit deadnettle, Lamium amplexicaule), Italian ryegrass (Lolium multiflorum), kochia (Kochia scoparia), lambsquarters (Chenopodium album), oilseed rape (Brassica napus), pigweed (Amaranthus retroflexus), chamomile (scentless chamomile, Matricaria inodora), Russian thistle (Salsola kali), speedwell (bird's-eye speedwell, Veronica persica), spring barley (Hordeum vulgare), spring wheat (Triticum aestivum), wild buckwheat (Polygonum convolvulus), wild mustard (Sinapis arvensis), wild oat (Avena fatua), wild radish (Raphanus raphanistrum), windgrass (Apera spica-venti), winter barley (Hordeum vulgare), and winter wheat (Triticum aestivum) were planted into a silt loam soil and treated preemergence with test chemicals formulated in a non-phytotoxic solvent mixture which included a surfactant.
# (§2) At the same time, these species were planted in pots containing Redi-Earth® planting medium (Scotts Company, 14111 Scottslawn Road, Marysville, Ohio 43041) comprising spaghnum peat moss, vermiculite, wetting agent and starter nutrients and treated with postemergence applications of the test chemicals formulated in the same manner. Plants ranged in height from 2 to 18 cm (1- to 4-leaf stage). Treated plants and controls were maintained in a controlled growth environment for 7 to 21 days after which time all species were compared to controls and visually evaluated. Plant response ratings, summarized in Table D, are based on a scale of 0 to 100 where 0 is no effect and 100 is complete control. A dash (-) response means no test result.
# [2] = test system: spring wheat; test: Test D postemergence; type: in vivo, Triticum aestivum; conditions: for plant injury at 16 g/ha: 16 g ai/ha, scale 0-100, read-out: Plant response rating, Wheat, Spring
# Source text: as §1, §2
# [3] = test system: winter wheat; test: Test D postemergence; type: in vivo, Triticum aestivum; conditions: for plant injury at 16 g/ha: 16 g ai/ha, scale 0-100, read-out: Plant response rating, Wheat, Winter
# Source text: as §1, §2
# [4] = test system: field violet; test: Test D postemergence; type: in vivo, Viola arvensis; conditions: for pest or weed control at 16 g/ha: 16 g ai/ha, scale 0-100, read-out: Plant response rating, Field Violet
# Source text: as §1, §2
# [5] = test system: spring wheat; test: Test D preemergence; type: in vivo, Triticum aestivum
# Source text: as §1, §2
# [6] = test system: winter wheat; test: Test D preemergence; type: in vivo, Triticum aestivum
# Source text: as §1, §2
# [7] = 31 g ai/ha, scale 0 (no effect) to 100 (complete control)
# [8] = 62 g ai/ha, scale 0 to 100 (0 no effect, 100 complete control)
# [9] = 125 g ai/ha, scale 0 to 100 (0 no effect, 100 complete control)
# [10] = 250 g ai/ha, scale 0 to 100 (0 no effect, 100 complete control)
# [11] = Papaver rhoeas, pre-emergence, 31 g ai/ha, scale 0-100, read-out: Plant response rating, Field Poppy
# [12] = Papaver rhoeas, pre-emergence, 62 g ai/ha, scale 0-100, read-out: Plant response rating, Field Poppy
# [13] = Papaver rhoeas, pre-emergence, 125 g ai/ha, scale 0-100, read-out: Plant response rating, Field Poppy
# [14] = Triticum aestivum, post-emergence
# [15] = Triticum aestivum, post-emergence, 31 g ai/ha, scale 0 to 100 (0 no effect, 100 complete control), read-out: Plant response rating, Wheat, Spring
# [16] = Triticum aestivum, post-emergence, 62 g ai/ha, scale 0 to 100 (0 no effect, 100 complete control), read-out: Plant response rating, Wheat, Spring
# [17] = Triticum aestivum, post-emergence, 125 g ai/ha, scale 0 to 100 (0 no effect, 100 complete control), read-out: Plant response rating, Wheat, Spring
# [18] = Triticum aestivum, post-emergence, 31 g ai/ha, scale 0 to 100 (0 no effect, 100 complete control), read-out: Plant response rating, Wheat, Winter
# [19] = Triticum aestivum, post-emergence, 62 g ai/ha, scale 0 to 100 (0 no effect, 100 complete control), read-out: Plant response rating, Wheat, Winter
# [20] = Triticum aestivum, post-emergence, 125 g ai/ha, scale 0 to 100 (0 no effect, 100 complete control), read-out: Plant response rating, Wheat, Winter
# [21] = Viola arvensis, post-emergence, 31 g ai/ha, scale 0 to 100 (0 no effect, 100 complete control), read-out: Plant response rating, Field Violet
# [22] = Viola arvensis, post-emergence, 62 g ai/ha, scale 0 to 100 (0 no effect, 100 complete control), read-out: Plant response rating, Field Violet
# [23] = Viola arvensis, post-emergence, 125 g ai/ha, scale 0 to 100 (0 no effect, 100 complete control), read-out: Plant response rating, Field Violet
compound,measurement,setting,value
N#Cc1cccc(Oc2ncc(Cl)cn2)c1-n1cc(-n2ccc(C(F)(F)F)n2)cn1 [Compound 284],"Plant response rating, Field Poppy",[1]; [7],100
same,"Plant response rating, Field Poppy","[1]; 62 g ai/ha, scale 0-100",100
same,"Plant response rating, Field Poppy","[1]; 125 g ai/ha, scale 0-100",100
same,"Plant response rating, Field Poppy","[1]; 250 g ai/ha, scale 0-100",100
same,"Plant response rating, Wheat, Spring","[2]; 31 g ai/ha, scale 0-100",15
same,"Plant response rating, Wheat, Spring",[2]; [8],25
same,"Plant response rating, Wheat, Spring",[2]; [9],30
same,"Plant response rating, Wheat, Spring",[2]; [10],35
same,"Plant response rating, Wheat, Winter","[3]; 31 g ai/ha, scale 0-100",10
same,"Plant response rating, Wheat, Winter",[3]; [8],25
same,"Plant response rating, Wheat, Winter",[3]; [9],20
same,"Plant response rating, Wheat, Winter",[3]; [10],25
same,"Plant response rating, Field Violet","[4]; 31 g ai/ha, scale 0-100",100
same,"Plant response rating, Field Violet",[4]; [8],85
same,"Plant response rating, Field Violet",[4]; [9],100
same,"Plant response rating, Field Violet",[4]; [10],100
same,"Plant response rating, Wheat, Spring",[5]; [7],10
same,"Plant response rating, Wheat, Spring","[5]; 125 g ai/ha, scale 0-100",20
same,"Plant response rating, Wheat, Spring","[5]; 250 g ai/ha, scale 0-100",30
same,"Plant response rating, Wheat, Winter",[6]; [7],15
same,"Plant response rating, Wheat, Winter","[6]; 125 g ai/ha, scale 0-100",20
same,"Plant response rating, Wheat, Winter","[6]; 250 g ai/ha, scale 0-100",25
"FC(F)(F)c1cnn(-c2ccccc2Oc2ncc(Br)cn2)c1 [Compound 18, 5-bromo-2-[2-[4-(trifluoromethyl)-1H-pyrazol-1-yl]phenoxy]pyrimidine]",pest or weed control at 31 g/ha,[1]; [11],70%
same,pest or weed control at 62 g/ha,[1]; [12],85%
same,pest or weed control at 125 g/ha,[1]; [13],95%
same,pest or weed control at 250 g/ha,"[1]; Papaver rhoeas, pre-emergence, 250 g ai/ha, scale 0-100, read-out: Plant response rating, Field Poppy",100%
same,plant injury at 16 g/ha,[2]; [14],10%
same,plant injury at 31 g/ha,[2]; [15],10%
same,plant injury at 62 g/ha,[2]; [16],15%
same,plant injury at 125 g/ha,[2]; [17],20%
same,plant injury at 250 g/ha,"[2]; Triticum aestivum, post-emergence, 250 g ai/ha, scale 0 to 100 (0 no effect, 100 complete control), read-out: Plant response rating, Wheat, Spring",25%
same,plant injury at 16 g/ha,[3]; [14],5%
same,plant injury at 31 g/ha,[3]; [18],5%
same,plant injury at 62 g/ha,[3]; [19],10%
same,plant injury at 125 g/ha,[3]; [20],15%
same,plant injury at 250 g/ha,"[3]; Triticum aestivum, post-emergence, 250 g ai/ha, scale 0 to 100 (0 no effect, 100 complete control), read-out: Plant response rating, Wheat, Winter",20%
same,pest or weed control at 16 g/ha,"[4]; Viola arvensis, post-emergence",55%
same,pest or weed control at 31 g/ha,[4]; [21],80%
same,pest or weed control at 62 g/ha,[4]; [22],65%
same,pest or weed control at 125 g/ha,[4]; [23],80%
same,pest or weed control at 250 g/ha,"[4]; Viola arvensis, post-emergence, 250 g ai/ha, scale 0 to 100 (0 no effect, 100 complete control), read-out: Plant response rating, Field Violet",90%
same,plant injury at 16 g/ha,"[5]; Triticum aestivum, pre-emergence, 16 g ai/ha, scale 0 (no effect) to 100 (complete control), read-out: Plant response rating, Wheat, Spring",0%
same,plant injury at 31 g/ha,"[5]; Triticum aestivum, pre-emergence, 31 g ai/ha, scale 0 (no effect) to 100 (complete control), read-out: Plant response rating, Wheat, Spring",0%
same,plant injury at 62 g/ha,"[5]; Triticum aestivum, pre-emergence, 62 g ai/ha, scale 0-100, read-out: Plant response rating, Wheat, Spring",0%
same,plant injury at 125 g/ha,"[5]; Triticum aestivum, pre-emergence, 125 g ai/ha, scale 0-100, read-out: Plant response rating, Wheat, Spring",5%
same,plant injury at 250 g/ha,"[5]; Triticum aestivum, pre-emergence, 250 g ai/ha, scale 0-100, read-out: Plant response rating, Wheat, Spring",15%
same,plant injury at 16 g/ha,"[6]; Triticum aestivum, pre-emergence, 16 g ai/ha, scale 0 (no effect) to 100 (complete control), read-out: Plant response rating, Wheat, Winter",0%
same,plant injury at 31 g/ha,"[6]; Triticum aestivum, pre-emergence, 31 g ai/ha, scale 0 (no effect) to 100 (complete control), read-out: Plant response rating, Wheat, Winter",0%
same,plant injury at 62 g/ha,"[6]; Triticum aestivum, pre-emergence, 62 g ai/ha, scale 0-100, read-out: Plant response rating, Wheat, Winter",5%
same,plant injury at 125 g/ha,"[6]; Triticum aestivum, pre-emergence, 125 g ai/ha, scale 0-100, read-out: Plant response rating, Wheat, Winter",5%
same,plant injury at 250 g/ha,"[6]; Triticum aestivum, pre-emergence, 250 g ai/ha, scale 0-100, read-out: Plant response rating, Wheat, Winter",40%
"Fc1cccc(Oc2ncc(Cl)cn2)c1-n1cc(Br)cn1 [Compound 178, 2-[2-(4-bromo-1H-pyrazol-1-yl)-3-fluorophenoxy]-5-chloropyrimidine]",pest or weed control at 16 g/ha,"[1]; Papaver rhoeas, pre-emergence, 16 g ai/ha, scale 0 (no effect) to 100 (complete control), read-out: Plant response rating, Field Poppy",20%
same,pest or weed control at 31 g/ha,[1]; [11],70%
same,pest or weed control at 62 g/ha,[1]; [12],85%
same,pest or weed control at 125 g/ha,[1]; [13],85%
same,plant injury at 16 g/ha,[2]; [14],0%
same,plant injury at 31 g/ha,[2]; [15],0%
same,plant injury at 62 g/ha,[2]; [16],0%
same,plant injury at 125 g/ha,[2]; [17],5%
same,plant injury at 16 g/ha,[3]; [14],0%
same,plant injury at 31 g/ha,[3]; [18],0%
same,plant injury at 62 g/ha,[3]; [19],0%
same,plant injury at 125 g/ha,[3]; [20],10%
same,pest or weed control at 16 g/ha,"[4]; Viola arvensis, post-emergence",50%
same,pest or weed control at 31 g/ha,[4]; [21],60%
same,pest or weed control at 62 g/ha,[4]; [22],65%
same,pest or weed control at 125 g/ha,[4]; [23],70%
